Source: article PMC9317316, “Synthesis and Evaluation of Some New 4H-Pyran Derivatives as Antioxidant, Antibacterial and Anti-HCT-116 Cells of CRC, with Molecular Docking, Antiproliferative, Apoptotic and ADME Investigations” (Pharmaceuticals, 2022)
“And” between values parts separate entries of the source, which are not always exact repeats. Equal entries are not always repeated. Where two headings read alike, the source gives them in different places.

How the values were obtained:
[1] = system: HCT-116 cells; test: Cell viability (cytotoxicity, LDH release) assay; format: cell-based; conditions: Homo sapiens, 24 h; for viability at 100 µg/mL: read-out: percent of viable cells
Description: The synthesized compounds were also examined at four concentrations (10, 25, 50 and 100 µg/mL) for their cytotoxic effects on human colorectal cancer HCT-116 cells after their incubation together for 24 h.
Cytotoxic potency was examined for a human colon cancer cell line HCT-116 (American Type Culture Collection; Manassas, VA, USA) using various amounts of each compound (10, 25, 50 and 100 µg). Samples were diluted in Dulbecco’s Modified Eagle’s Medium, consisting of 10% Fetal Bovine Serum, and added to cells grown and cultured for 24 h in a 5% CO2-humidified incubator at 37 °C. Then, the activity of lactate dehydrogenase released from damaged cells was determined in the collected supernatant aliquots using an ELISA endpoint assay (Benchmark Plus, Bio-Rad, Hercules, CA, USA). As positive and negative controls, respectively, 0.1% Triton X-100 in the assay medium and the assay medium only were used. Cell viability, shown as mean values ± SDs (n = 3), was expressed as a relative percentage of the OD values determined at 600 nm in compound-treated cells and the control.

[2] = Reducing power assay (FRAC, Fe3+ to Fe2+); conditions: 0-1 mg/mL, absorbance 700 nm
Description: Secondly, FRAC was determined over the concentration range of 0.0−1 mg/mL via monitoring Fe^3+−Fe^2+ transformation in the presence of the studied compounds and the reference antioxidant BHT to estimate the values of efficient concentration (EC50), expressed in mM.
The reducing power of the studied compounds was assessed according to Oyaizu’s method. Briefly, different concentrations (ranging from 0 to 1 mg/mL) of each tested compound were first mixed with 1 mL of 0.2 M sodium phosphate buffer (pH 6.6) and 1 mL of 1% potassium ferricyanide (K3Fe(CN)6) and incubated at 50 °C for 20 min. After the addition of 1.25 mL of 20% trichloroacetic acid (TCA), the mixture was centrifuged for 10 min at 3000 rpm and the upper layer solution was then mixed with 0.5 mL of 0.1% fresh ferric chloride and an equal volume of deionized water. Finally, the absorption of the resulting mixture was measured at 700 nm using a UV spectrophotometer against distilled water as the blank, while butylated hydroxytoluene (BHT) was used as a positive control. The sample ferric reducing power capability was indicated by increased absorbance.

[3] = system: E. faecalis (ATCC 29122); test: Antibacterial viability (CFU) assay, IC50; format: cell-based; conditions: Enterococcus faecalis, ATCC29122
Description: (§1) The results for the in vitro antibacterial properties of the synthesized compounds against five Gram-positive and four Gram-negative human-pathogenic strains, which were assessed by both the agar diffusion method (based on inhibition zone (IZ)) and the broth dilution bioassay (for the determination of the half-maximal inhibitory concentration (IC50) values), using ampicillin as the reference antibiotic drug, are shown in Table 2 and Table 3.
(§2) The antibacterial activity of all synthesized compounds was evaluated against the Gram-negative strains E. coli (ATCC 25966), K. pneumonia (ATCC 700603), P. aeruginosa (ATCC 27853) and S. enteric (ATCC 43972) and against the Gram-positive strains B. cereus (ATCC 14579), B. subtilis (ATCC 6633), E. faecalis (ATCC 29122), S. aureus (ATCC 25923) and S. epidermidis (ATCC 14990), using the agar diffusion method through measuring the appearance of the inhibition zone on the surface of the top agar, as reported by Berghe and Vlietinck. Ampicillin (10 µg/well) was used as the positive reference standard. Bacterial viability was also investigated by determining the colony-forming ability (CFU) of bacteria incubated at different time intervals without or with appropriate amounts of the compound, which were mixed with 2 ×10^7 CFU/mL in sterile BHI and incubated under shaking for 60 min at 37 °C. Samples were serially diluted into sterile BHI, streaked onto media agar plates and incubated for 24 h at 37 °C. The antibacterial potency of the tested compounds was expressed as the residual number of CFUs with reference to the initial inoculums. The results presented as the half-maximal (50 %) inhibitory concentration (IC50) values are the means of three different measurements.

[4] = system: S. aureus (ATCC 25923); test: Antibacterial viability (CFU) assay, IC50; format: cell-based; conditions: Staphylococcus aureus, ATCC25923
Description: as §1, §2

[5] = system: K. pneumonia (ATCC 700603); test: Antibacterial viability (CFU) assay, IC50; format: cell-based; conditions: Klebsiella pneumoniae, ATCC700603
Description: as §1, §2

[6] = system: E. coli (ATCC 25966); test: Antibacterial viability (CFU) assay, IC50; format: cell-based; conditions: Escherichia coli, ATCC25966; E. coil (ATCC 25966)
Description: as §1, §2

[7] = system: P. aeruginosa (ATCC 27853); test: Antibacterial viability (CFU) assay, IC50; format: cell-based; conditions: Pseudomonas aeruginosa, ATCC27853
Description: as §1, §2

[8] = system: B. subtilis (ATCC 6633); test: Antibacterial viability (CFU) assay, IC50; format: cell-based
Description: as §1, §2

[9] = system: S. enteric (ATCC 43972); test: Antibacterial viability (CFU) assay, IC50; format: cell-based; conditions: read-out: IC50
Description: as §1, §2

[10] = system: S. epidermidis (ATCC 14990); test: Antibacterial viability (CFU) assay, IC50; format: cell-based; conditions: Staphylococcus epidermidis, ATCC14990
Description: as §1, §2

[11] = system: B. cereus (ATCC 14579); test: Antibacterial viability (CFU) assay, IC50; format: cell-based; conditions: Bacillus cereus, ATCC14579
Description: as §1, §2

[12] = DPPH radical scavenging assay; conditions: for IC50: 0.03 to 1 mg/mL, 1 h, mean ± SD, triplicate, read-out: IC50 (mM) for DPPH Scavenging Potency
Description: The IC50 values for DPPH were calculated from the plot of the scavenging effect against the compound concentration.
The compounds’ capacities to scavenge the stable radical 1,1 diphenyl-2-picrylhydrazyl (DPPH) formed in solution by donation of a hydrogen atom or an electron was investigated according to the method described by Bersuder and coworkers. Due to the fact that the initial blue/purple solution of diphenyl picrylhydrazine changes to yellow in the presence of compounds with a capacity to scavenge DPPH free radicals, this reaction is used as a measure of a compound’s ability to scavenge any free radical. Briefly, a 0.5 mL volume of DPPH ethanolic solution was mixed with an equal volume of each sample concentration (0.03 to 1 mg/mL), shaken strongly and incubated at room temperature for 1 h in darkness. The absorbance of the residual DPPH radicals was measured at 519 nm and compared to that of the control (without the tested compound). DPPH radical scavenging was calculated using the following formula: Scavenging effect (%) = (1 − Acompound/AControl) × 100, where Acompound and Acontrol are the absorbances of the tested compound and of the control, respectively. A plot of the scavenging effect (%) versus the sample concentration was also performed to determine the compound concentration providing 50% inhibition (IC50).

[13] = system: E. faecalis (ATCC 29122); test: Antibacterial agar diffusion method (inhibition zone); format: cell-based
Description: as §1, §2

[14] = system: S. aureus (ATCC 25923); test: as above; format: cell-based
Description: as §1, §2

[15] = system: K. pneumonia (ATCC 700603); test: as above; format: cell-based
Description: as §1, §2

[16] = system: E. coli (ATCC 25966); test: as above; format: cell-based; conditions: E. coil (ATCC 25966)
Description: as §1, §2

[17] = system: P. aeruginosa (ATCC 27853); test: as above; format: cell-based
Description: as §1, §2

[18] = system: B. subtilis (ATCC 6633); test: as above; format: cell-based
Description: as §1, §2

[19] = system: S. enteric (ATCC 43972); test: as above; format: cell-based
Description: as §1, §2

[20] = system: S. epidermidis (ATCC 14990); test: as above; format: cell-based
Description: as §1, §2

[21] = system: B. cereus (ATCC 14579); test: as above; format: cell-based
Description: as §1, §2

[22] = read-out: Mean IC50 (µM) of cytotoxicity
[23] = read-out: Mean IC50 (µg/mL) of cytotoxicity
[24] = Bacillus subtilis, ATCC6633, B. subtilis (ATCC 6633)

| SMILES | viability at 100 µg/mL [1] [%] | IC50 [1, 22] [µM] | IC50 [1, 23] [µg/mL] | melting point [°C] | EC50 [2] [µM] | IC50 [3] [µM] | IC50 [4] [µM] | IC50 [5] [µM] | IC50 [6] [µM] | IC50 [7] [µM] | IC50 [8, 24] [µM] | IC50 [9] [µM] | IC50 [10] [µM] | IC50 [11] [µM] | IC50 [12] [mM] | DPPH Radical Scavenging Effenciency (%) at 1 mg/mL [12] | IZ (mm) [13] [mm] | IZ (mm) [14] | IZ (mm) [15] [mm] | IZ (mm) [16] [mm] | further results |
| --- | --- | --- | --- | --- | --- | --- | --- | --- | --- | --- | --- | --- | --- | --- | --- | --- | --- | --- | --- | --- | --- |
| CCOC(=O)C1=C(C)OC(N)=C(C#N)C1c1c(OC)cc(OC)cc1OC (stereo not shown) [4h, 6-Amino-5-cyano-2-methyl-4-(2,4,6-trimethoxy-phenyl)-4H-pyran-3-carboxylic acid ethyl ester] | 11 to 32.5 | 185 ± 11.5 | 69.2 ± 4.29 | 196 to 198 | 221 ± 11 | 45.9 ± 0.75 | 32.7 ± 0.93 | 118 ± 2.67 | 114 ± 0.8 | 89.5 ± 2.94 | 50.1 ± 2.83 | 112 ± 2.94 | 35.8 ± 1.52 | 46.5 ± 1.52 | 1.31 ± 0.075 | 33.50 ± 2.12% | 8.00 ± 1.41 | 17.50 mm and 17.50 ± 0.71 mm | 3.5 ± 0.7 | 1.5 ± 0.71 | IZ (mm) [17]: 4.5 ± 0.7 mm; IZ (mm) [18]: 6.00 ± 1.41 mm; IZ (mm) [19]: 5.5 ± 0.7 mm; IZ (mm) [20]: 16.50 ± 0.71 mm; IZ (mm) [21]: 4.50 ± 0.71 mm |
| CC1=C(C(=O)OCc2ccccc2)C(c2ccc(F)cc2)C(C#N)=C(N)O1 (stereo not shown) [4i, 6-Amino-5-cyano-4-(4-fluoro-phenyl)-2-methyl-4H-pyran-3-carboxylic acid benzyl ester] | 11 to 32.5 | 181 ± 12.4 | 66 ± 4.53 | 124 to 126 | 274 ± 39 | 37.5 ± 1.37 | 40.2 ± 1.37 | 79.9 ± 3.02 | 82.6 ± 1.65 | 62 ± 2.2 | 23.6 to 36.8 | 91.5 ± 2.74 | 46 ± 0.96 | 38 ± 1.37 | 1.78 ± 0.115 | 26.05 ± 1.06% | 6.50 ± 0.71 | 9.50 ± 2.12 mm | 6.5 ± 0.7 | 5.5 ± 0.71 | IC50 ([8]; B. subtilis (ATCC 6633)): 31.6 ± 1.95 µM; IZ (mm) [17]: 8.5 ± 0.7 mm; IZ (mm) [18]: 9.50 mm and 9.50 ± 0.71 mm; IZ (mm) [19]: 8.0 ± 1.4 mm; IZ (mm) [20]: 11.50 ± 0.71 mm; IZ (mm) [21]: 14.50 ± 0.71 mm |
| CC1=C(C(=O)OCc2ccccc2)C(c2ccccc2Cl)C(C#N)=C(N)O1 (stereo not shown) [4l, 6-Amino-4-(2-chloro-phenyl)-5-cyano-2-methyl-4H-pyran-3-carboxylic acid benzyl ester] | 11 to 32.5 | 93.4 ± 4.63 | 35.5 ± 1.77 | 162 to 164 | 801 ± 19 | 37.8 ± 1.5 | 31.1 ± 0.55 | 77.5 ± 7.08 | 90.1 ± 2.63 | 72.7 ± 2.63 | 23.6 to 36.8 | 77.6 ± 1.58 | 33.4 ± 1.1 | 33.2 ± 2.42 | 0.919 ± 0.026 | 70.20% and 70.20 ± 1.70% | 6.00 ± 1.41 | 9.00 mm and 9.00 ± 1.41 mm | 2.5 ± 0.7 | 3.5 ± 0.7 | IC50 ([8]; B. subtilis (ATCC 6633)): 32.6 ± 1.5 µM; IZ (mm) [17]: 4.5 ± 0.7 mm; IZ (mm) [18]: 11.50 ± 0.71 mm; IZ (mm) [19]: 4.0 ± 0.0 mm; IZ (mm) [20]: 10.50 ± 0.71 mm; IZ (mm) [21]: 10.00 ± 1.41 mm |
| CC1=C(C(=O)OCc2ccccc2)C(c2ccc(Cl)cc2Cl)C(C#N)=C(N)O1 (stereo not shown) [4m, 6-Amino-5-cyano-4-(2,4-dichloro-phenyl)-2-methyl-4H-pyran-3-carboxylic acid benzyl ester] | 11 to 32.5 | 89.3 ± 5.05 | 37.1 ± 2.1 | 146 to 148 | 506 ± 34 | 35.3 ± 2.22 | 33.2 ± 1.01 | 66.7 ± 2.41 | 69.4 ± 2.89 | 60.9 ± 2.17 | 23.6 to 36.8 | 61.8 ± 2.17 | 35 ± 1.88 | 35.8 ± 1.2 | 0.421 ± 0.017 | 69.00% and 69.0 ± 2.83% | 20.50 ± 0.71 | 17.50 mm and 17.50 ± 0.71 mm | 6.5 ± 0.7 | 5.5 ± 0.71 | IC50 ([8]; B. subtilis (ATCC 6633)): 32.8 ± 2.05 µM; IZ (mm) [17]: 9.5 ± 0.7 mm; IZ (mm) [18]: 21.50 ± 0.71 mm; IZ (mm) [19]: 8.5 ± 0.7 mm; IZ (mm) [20]: 18.50 ± 0.71 mm; IZ (mm) [21]: 18.50 ± 0.71 mm |
